{"source": "paper PMC9428149", "about": "“Tackling recalcitrant Pseudomonas aeruginosa infections in critical illness via anti-virulence monotherapy” (Nature Communications, 2022)", "key": {"[1]": {"molecular_target": "MvfR binding to the pqsA promoter (Pseudomonas aeruginosa, UniProt Q9I4X0)", "sequence (Q9I4X0 whole entry, looked up)": "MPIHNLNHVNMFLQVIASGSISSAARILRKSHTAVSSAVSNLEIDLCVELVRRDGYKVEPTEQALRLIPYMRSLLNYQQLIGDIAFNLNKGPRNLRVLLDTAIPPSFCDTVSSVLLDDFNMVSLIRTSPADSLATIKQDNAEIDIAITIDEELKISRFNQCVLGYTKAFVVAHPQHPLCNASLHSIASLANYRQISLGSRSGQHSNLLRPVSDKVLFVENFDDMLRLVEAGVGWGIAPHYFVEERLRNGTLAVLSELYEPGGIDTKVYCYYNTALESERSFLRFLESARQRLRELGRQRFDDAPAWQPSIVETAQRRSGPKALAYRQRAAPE", "type": "cell-based", "conditions": "for MvfR binding to the pqsA promoter (ChIP-qPCR): D88 +, Figure 5c, replicates"}, "[2]": {"test_system": "Caco-2 cells", "assay": "MTT cytotoxicity, Caco-2", "type": "cell-based, human", "conditions": "for Cell viability (MTT) relative to Vehicle: Caco-2, replicates", "method": "(§1) For the determination of cytotoxicity, cell viability was determined using the MTT (3-[4, 5-dimethyl-2-thiazolyl]−2, 5-diphenyl-2H-tetrazolium bromide) assay in the presence and absence of compound (D88). […] The cells were then treated with either vehicle or different concentrations of D88 (10, 20, 30, 40, and 50 µM) for 24 h at 37 °C and 5% CO2. After 24 h, the cells were washed three times with PBS and were incubated in 200 μL PBS containing 200 μg mL^−1 MTT (Sigma-Aldrich) in a 96-well culture plate for 2 h at 37 °C and 5% CO2. Following incubation, the supernatant was discarded, and the cells were lysed in 95% isopropanol and 5% formic acid."}, "[3]": {"test_system": "A549 cells", "assay": "MTT cytotoxicity, A549", "type": "cell-based, human", "conditions": "for Cell viability (MTT) relative to Vehicle: A549, replicates", "method": "as §1"}, "[4]": {"test_system": "RAW 264.7 cells", "assay": "MTT cytotoxicity, RAW 264.7", "type": "cell-based, mouse", "conditions": "for Cell viability (MTT) relative to Vehicle: RAW 264.7, replicates", "method": "as §1"}, "[5]": {"test_system": "PA14 burn-site infection", "assay": "In vivo intestinal permeability (FITC-dextran) in burn-site infection model", "set-up": "species or system mouse"}, "[6]": {"test_system": "PA14 burn-site infection", "assay": "Bacterial dissemination and load (CFU) in burn-site infection model", "type": "in vivo, mouse"}, "[7]": {"test_system": "MvfR-regulated small molecules at the site of infection", "assay": "Production of HHQ, PQS, HQNO, 2-AA and DHQ in vivo", "set-up": "species or system mouse", "method": "(§2) For the group supplemented with our MvfR-inhibiting compound (D88), mice received five subcutaneous injections (at the nape of the animals) at 1, 4, 8, 12, and 18 h post-BI, at a dose of 24 mg kg^−1 body weight. D88 was prepared in a 40% Captisol vehicle. Control groups received equivalent doses of 40% Captisol vehicle.\nTo measure the production of HHQ, PQS, HQNO, 2-AA, and DHQ in vivo, underlying muscle from the site of infection was collected at 12 h and 22 h post-infection, and the small molecules were extracted by homogenizing them immediately in 1 mL sterile PBS as above. A 500 μL of sample was mixed with an equal volume of methanol containing 10 ppm of HHQ-D4 and 20 ppm of PQS-D4, spun down for 5 min, and 700 μL of supernatant were put in glass vials. Liquid chromatography-mass spectrophotometry ([…]) analysis was performed as described above and in[66]."}, "[8]": {"test_system": "claudin-1", "assay": "Tight junction claudin-1 immunofluorescence, distal ileum", "type": "in vivo, mouse", "method": "as §2\nSamples of distal ileum fixed with 4% paraformaldehyde were cut in sections and mounted on microscope slides. After deparaffinization and antigen retrieval (Antigen Retrieval reagent; R&D Systems, Minneapolis, MN, USA), tissue sections were immersed in PBS/0.1 tween for 10 min and were blocked by Normal Goat Serum. They were then incubated with primary antibody rabbit polyclonal anti-claudin-1 (Catalog# 71-7800; final concentration, 1:100; Invitrogen, Rockford, IL, USA) overnight in a humid chamber at 4 °C. The sections were washed three times with PBS and secondary antibody goat anti-rabbit (Catalog# ab150061; final concentration: 1:500; Abcam, Cambridge, MA, USA) and DAPI (Catalog# ab228549; Abcam, Cambridge, MA, USA) were added, and incubated 1 h at room temperature. The sections were then washed three times with PBS, dried, and mounted, and images were collected using a confocal microscope (Nikon ECLIPSE Ti2; NIS-Elements AR 5.21.03; Nikon Instruments Inc., Tokyo, Japan)."}, "[9]": {"test_system": "TNF-α", "assay": "Ileal TNF-α ELISA", "type": "in vivo, mouse", "conditions": "burn + PA14 + D88, 22 h", "method": "as §2\n(§3) Distal ileal TNF-α and IL-6 were quantified using the mouse TNF-α enzyme-linked immunosorbent assay [ELISA] Ready-SET-Go kit (eBioscience; San Diego, CA, USA) and the Mouse IL-6 DuoSet ELISA (R&D Systems) respectively, as per the manufacturer’s instructions."}, "[10]": {"test_system": "IL-6", "assay": "Ileal IL-6 ELISA", "type": "in vivo, mouse", "conditions": "burn + PA14 + D88, 22 h", "method": "as §2, §3"}, "[11]": {"conditions": "D88 Treated 12h, site of infection, single mice, Figure 6d"}, "[12]": {"conditions": "D88 Treated 22h, site of infection, single mice, Figure 6d"}}, "note": "Values joined by “and” are separate entries in the source; they are usually repeats but may differ in a detail not shown here. Equal values may be shown once. “Also recorded” adds a separate entry of the source. Read-outs that look alike come from different tables or passages of the source.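 For Claudin-1 immunofluorescence quantification (Supplimentary Figure 9) in this document: fluorescence intensity in arbitrary units.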"}
{"smiles": "N#Cc1ccc(NC(=O)C(F)C(=O)Nc2ccc(Oc3ccccc3)cc2)cc1", "note": "(centres unmarked) [D88]", "values": [{"measurement": "reduction of MvfR binding to the pqs operon promoter", "setting": "[1]; 50 µM D88, vs control", "value": "~ 80%"}, {"measurement": "PQS-mediated increase in MvfR binding", "setting": "[1]; D88 50 µM + PQS 38 µM", "value": "significantly decreased"}, {"measurement": "MvfR binding to the pqsA promoter (ChIP-qPCR)", "setting": "[1]; PQS +", "value": "4.271 and 2.782 and 2.485"}, {"measurement": "MvfR binding to the pqsA promoter (ChIP-qPCR)", "setting": "[1]; PQS −", "value": "1.532 and 0.7796 and 1.309"}, {"measurement": "cell viability", "setting": "[2]; Caco-2, 10-50 µM, 24 h", "value": "None of the used compound concentrations exerted any cytotoxic effect; also recorded: no significant changes in cell viability"}, {"measurement": "Cell viability (MTT) relative to Vehicle", "setting": "[2]; 10 μM", "value": "100.58 and 104.90 and 98.04 and 98.93 and 106.77 and 103.03"}, {"measurement": "Cell viability (MTT) relative to Vehicle", "setting": "[2]; 20 μM", "value": "88.76 and 107.49 and 114.33 and 95.92 and 103.96 and 102.97"}, {"measurement": "Cell viability (MTT) relative to Vehicle", "setting": "[2]; 30 μM", "value": "90.12 and 104.03 and 109.17 and 85.43 and 91.84 and 104.53"}, {"measurement": "Cell viability (MTT) relative to Vehicle", "setting": "[2]; 40 μM", "value": "102.40 and 93.65 and 104.99 and 92.78 and 93.27 and 104.68"}, {"measurement": "Cell viability (MTT) relative to Vehicle", "setting": "[2]; 50 μM", "value": "105.69 and 94.78 and 111.93 and 95.33 and 96.54 and 98.13"}, {"measurement": "cell viability", "setting": "[3]; A549, 10-50 µM, 24 h", "value": "None of the used compound concentrations exerted any cytotoxic effect; also recorded: no significant changes in cell viability"}, {"measurement": "Cell viability (MTT) relative to Vehicle", "setting": "[3]; 10 μM", "value": "104.92 and 112.79 and 105.24 and 97.24 and 88.17"}, {"measurement": "Cell viability (MTT) relative to Vehicle", "setting": "[3]; 20 μM", "value": "104.85 and 98.03 and 95.15 and 98.27 and 93.91"}, {"measurement": "Cell viability (MTT) relative to Vehicle", "setting": "[3]; 30 μM", "value": "88.06 and 91.37 and 110.19 and 88.29 and 118.10"}, {"measurement": "Cell viability (MTT) relative to Vehicle", "setting": "[3]; 40 μM", "value": "104.24 and 86.59 and 104.97 and 101.16 and 96.70"}, {"measurement": "Cell viability (MTT) relative to Vehicle", "setting": "[3]; 50 μM", "value": "95.15 and 105.16 and 99.77 and 98.12"}, {"measurement": "cell viability", "setting": "[4]; RAW 264.7, 10-50 µM, 24 h", "value": "None of the used compound concentrations exerted any cytotoxic effect; also recorded: no significant changes in cell viability"}, {"measurement": "Cell viability (MTT) relative to Vehicle", "setting": "[4]; 10 μM", "value": "106.22 and 99.08 and 96.63 and 98.82 and 101.11 and 88.19"}, {"measurement": "Cell viability (MTT) relative to Vehicle", "setting": "[4]; 20 μM", "value": "109.67 and 80.39 and 97.97 and 112.02 and 105.97 and 95.04"}, {"measurement": "Cell viability (MTT) relative to Vehicle", "setting": "[4]; 30 μM", "value": "93.49 and 78.32 and 83.19 and 78.26 and 102.67 and 94.83"}, {"measurement": "Cell viability (MTT) relative to Vehicle", "setting": "[4]; 40 μM", "value": "110.52 and 98.03 and 98.54 and 91.97 and 90.51 and 93.01"}, {"measurement": "Cell viability (MTT) relative to Vehicle", "setting": "[4]; 50 μM", "value": "100.26 and 92.62 and 78.32 and 79.67 and 99.66 and 96.62"}, {"measurement": "mean FITC-dextran in serum", "setting": "[5]; burn + PA14 infection, D88 24 mg kg^−1 SC x5, 22 h", "value": 2759, "unit": "ng/mL"}, {"measurement": "mean FITC-dextran in serum", "setting": "[5]; burn alone without infection, D88-treated, 22 h", "value": 850, "unit": "ng/mL"}, {"measurement": "intestinal permeability status", "setting": "[5]; mvfR mutant-infected mice treated with D88 vs no treatment or vehicle", "value": "no difference in the intestinal permeability status"}, {"measurement": "bacterial dissemination to the intestinal tissues (ileum and colon)", "setting": "[6]; burn + PA14, D88, 22 h", "value": "significantly reduced"}, {"measurement": "bacterial load at the inoculation site", "setting": "[6]; burn + infection, D88, 22 h", "value": "not affected"}, {"measurement": "bacterial load at the site of infection (CFUs)", "setting": "[6]; infected and D88 treated animals", "value": "~1 × 10^8"}, {"measurement": "levels of HHQ, PQS, HQNO, 2-AA and DHQ at the site of infection", "setting": "[7]; 12 h post-infection", "value": "strong inhibitory efficacy"}, {"measurement": "levels of HHQ, PQS, HQNO, 2-AA and DHQ at the site of infection", "setting": "[7]; 22 h post-infection", "value": "complete abolishment"}, {"measurement": "DHQ", "setting": "[7]; [11]", "value": 0.0000}, {"measurement": "HQNO", "setting": "[7]; [11]", "value": 0.0000}, {"measurement": "2-AA", "setting": "[7]; [12]", "value": 0.0000}, {"measurement": "DHQ", "setting": "[7]; [12]", "value": 0.0000}, {"measurement": "Claudin-1 immunofluorescence quantification (Supplimentary Figure 9)", "setting": "[8]; PA14+D88 group, compare Sham, PA14+Vehicle, ΔmvfR, individual measurements", "value": "148.508 and 162.001 and 157.541 and 137.39 and 152.028 and 182.597 and 148.327 and 116.923 and 109.707 and 109.463"}, {"measurement": "claudin-1 staining fluorescence intensity", "setting": "[8]; ileum, PA14 infected + D88, 22 h", "value": 142.48, "unit": "AUs"}, {"measurement": "mean ileal TNF-α level", "setting": "[9]", "value": 381, "unit": "pg mL^−1 g^−1 tissue"}, {"measurement": "ileal IL-6 level", "setting": "[10]", "value": "marked decrease"}]}
